Results reported in ChEMBL document CHEMBL1148183, “Anti-inflammatory activity of two flavonoids from Tanacetum microphyllum” (1993).
Calls of active or inactive are those of the source. No cut-off for these calls is given here.

Tests used:
Mus musculus [1] = test: Antiinflammatory activity against carrageenan-induced paw edema in po dosed Swiss mouse administered 1 hr before carrageenan challenge measured after 7 hrs; type: functional, organism-based
Mus musculus [2] = test: Antiinflammatory activity against carrageenan-induced paw edema in Swiss mouse at 10 mg/kg, po administered 1 hr before carrageenan challenge measured after 5 hrs; type: functional
Mus musculus [3] = test: Antiinflammatory activity against carrageenan-induced paw edema in Swiss mouse at 10 mg/kg, po administered 1 hr before carrageenan challenge measured after 3 hrs; type: functional
Mus musculus [4] = test: Antiinflammatory activity against carrageenan-induced paw edema in Swiss mouse at 25 mg/kg, po administered 1 hr before carrageenan challenge measured after 3 hrs; type: functional
Mus musculus [5] = test: Antiinflammatory activity against carrageenan-induced paw edema in Swiss mouse at 25 mg/kg, po administered 1 hr before carrageenan challenge measured after 5 hrs; type: functional
Mus musculus [6] = test: Antiinflammatory activity against carrageenan-induced paw edema in Swiss mouse at 80 mg/kg, po administered 1 hr before carrageenan challenge measured after 5 hrs; type: functional
Mus musculus [7] = test: Antiinflammatory activity against carrageenan-induced paw edema in Swiss mouse at 80 mg/kg, po administered 1 hr before carrageenan challenge measured after 3 hrs; type: functional

COC(=O)c1cc(O)c2c(=O)c(O)c(-c3ccc(OC)c(O)c3)oc2c1
Activity (Mus musculus [1]): Active
inhibition in vivo at 10 mg/kg (Mus musculus [2]): 52.7%
inhibition in vivo at 10 mg/kg (Mus musculus [3]): 64.9%

COc1ccc(-c2oc3cc(O)c(OC)c(O)c3c(=O)c2OC)cc1O [CENTAUREIDIN]
inhibition in vivo at 25 mg/kg (Mus musculus [4]): 67.6%
inhibition in vivo at 25 mg/kg (Mus musculus [5]): 55.5%

CCCCC1C(=O)N(c2ccccc2)N(c2ccccc2)C1=O [PHENYLBUTAZONE]
inhibition in vivo at 80 mg/kg (Mus musculus [6]): 47.2%
inhibition in vivo at 80 mg/kg (Mus musculus [7]): 51.4%
